Experimental data from article PMC6173509, “C-3- and C-4-Substituted Bicyclic Coumarin Sulfamates as Potent Steroid Sulfatase Inhibitors” (ACS Omega, 2018).

Assays:
[1] = design: method as in PMID 18288656, PMID 18288656, PMID 24604234; settings: rats; ref 12a, 12b, 14; cited from earlier work
steroid sulfatase (STS) [2] = biological target: T1, steroid sulfatase (STS) (Homo sapiens, UniProt P08842); design: endogenous in cells; host or cells: MCF-7 breast cancer cells; settings: cited from earlier work
T1 sequence (P08842 22-583): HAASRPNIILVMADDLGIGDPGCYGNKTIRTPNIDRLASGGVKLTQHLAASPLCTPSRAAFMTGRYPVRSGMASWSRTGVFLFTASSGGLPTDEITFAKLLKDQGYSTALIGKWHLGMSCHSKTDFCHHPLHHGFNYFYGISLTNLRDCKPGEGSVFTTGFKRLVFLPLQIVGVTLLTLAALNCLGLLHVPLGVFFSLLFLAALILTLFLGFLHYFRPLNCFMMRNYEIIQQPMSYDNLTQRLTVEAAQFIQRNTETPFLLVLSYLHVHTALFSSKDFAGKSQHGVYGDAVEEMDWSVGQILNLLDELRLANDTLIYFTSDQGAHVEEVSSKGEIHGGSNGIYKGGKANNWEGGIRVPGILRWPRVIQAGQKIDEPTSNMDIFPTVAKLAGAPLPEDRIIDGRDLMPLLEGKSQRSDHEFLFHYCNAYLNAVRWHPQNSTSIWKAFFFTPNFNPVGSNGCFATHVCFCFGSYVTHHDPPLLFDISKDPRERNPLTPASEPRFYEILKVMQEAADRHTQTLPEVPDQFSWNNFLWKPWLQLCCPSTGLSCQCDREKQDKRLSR

[3] = rodent; cited from earlier work
steroid sulfatase (STS) [4] = biological target: T1, steroid sulfatase (STS); design: a placental microsomal preparation from a sulfatase-positive human placenta from a normal term pregnancy; from tissue; host or cells: human placenta (microsomal preparation); settings: cited from earlier work; for % Inhibition of STS Activity in Placental Microsomes at 0.1 μM: 0.1 μM inhibitor; for % Inhibition of STS Activity in Placental Microsomes at 1 μM: 1 μM inhibitor; for % Inhibition of STS Activity in Placental Microsomes at 10 μM: 10 μM inhibitor
steroid sulfatase (STS) [5] = biological target: T1, steroid sulfatase (STS); experiment: STS inhibition in placental microsomes; format: biochemical; design: a placental microsomal preparation from a sulfatase-positive human placenta from a normal term pregnancy; from tissue; host or cells: human placenta (microsomal preparation); settings: 20 μM E1S; for inhibition at 0.1 µM: 0.1 μM inhibitor; for inhibition at 1 µM: 1 μM inhibitor
steroid sulfatase (STS) [6] = biological target: T1, steroid sulfatase (STS); experiment: STS inhibition in intact MCF-7 breast cancer cells; format: cell-based; design: endogenous in cells; host or cells: MCF-7 breast cancer cells; settings: for inhibition at 0.1 µM: MCF7, read-out: % Inhibition of STS Activity in Intact MCF-7 Breast Cancer Cells at 0.1 μM; for inhibition at 1 µM: MCF7, read-out: % Inhibition of STS Activity in Intact MCF-7 Breast Cancer Cells at 1 μM

In the case of `C[C@]12CC[C@@H]3c4ccc(OS(N)(=O)=O)cc4CC[C@H]3[C@@H]1CCC2=O` [compound 1, estrone-3-O-sulfamate], the estrogenicity [1] is given as “highly estrogenic”.

For `Cc1cc(=O)oc2cc(OS(N)(=O)=O)ccc12` [compound 3, 4-methylcoumarin-7-O-sulfamate], the “% Inhibition of STS Activity in Intact MCF-7 Breast Cancer Cells at 0.01 μM” value (steroid sulfatase (STS) [2]; 0.01 μM inhibitor) is listed as <10%, the “% Inhibition of STS Activity in Intact MCF-7 Breast Cancer Cells at 0.1 μM” value (steroid sulfatase (STS) [2]; 0.1 μM inhibitor) is listed as 43% and the estrogenic activity [3] is listed as “no rodent estrogenic activity”. The “% Inhibition of STS Activity in Placental Microsomes at 0.1 μM” value (steroid sulfatase (STS) [4]) was <10% and the “% Inhibition of STS Activity in Placental Microsomes at 1 μM” value (“% Inhibition of STS Activity … at 1 μM” below) (steroid sulfatase (STS) [4]) was 63%.

For `CCc1cc(=O)oc2cc(OS(N)(=O)=O)ccc12` [compound 4], the “% Inhibition of STS Activity in Placental Microsomes at 0.1 μM” value (steroid sulfatase (STS) [4]) is given as 35%, the “% Inhibition of STS Activity … at 1 μM” value (steroid sulfatase (STS) [4]) is given as 88% and the “% Inhibition of STS Activity in Placental Microsomes at 10 μM” value (“% Inhibition of STS Activity … at 10 μM” below) (steroid sulfatase (STS) [4]) is given as >99%.

In the case of `CCCc1cc(=O)oc2cc(OS(N)(=O)=O)ccc12` [compound 5], the “% Inhibition of STS Activity in Placental Microsomes at 0.1 μM” value (steroid sulfatase (STS) [4]) is listed as 42%, the “% Inhibition of STS Activity … at 1 μM” value (steroid sulfatase (STS) [4]) is listed as 94% and the “% Inhibition of STS Activity … at 10 μM” value (steroid sulfatase (STS) [4]) is listed as 96%.

For `CCc1c(C)c2ccc(OS(N)(=O)=O)cc2oc1=O` [compound 7], the “% Inhibition of STS Activity in Placental Microsomes at 0.1 μM” value (steroid sulfatase (STS) [4]) is given as 57%, the “% Inhibition of STS Activity … at 1 μM” value (steroid sulfatase (STS) [4]) is given as 96% and the “% Inhibition of STS Activity … at 10 μM” value (steroid sulfatase (STS) [4]) is given as >99%.

In the case of `CCCc1c(C)c2ccc(OS(N)(=O)=O)cc2oc1=O` [compound 8], the “% Inhibition of STS Activity in Placental Microsomes at 0.1 μM” value (steroid sulfatase (STS) [4]) is given as 83%, the “% Inhibition of STS Activity … at 1 μM” value (steroid sulfatase (STS) [4]) is given as 97% and the “% Inhibition of STS Activity … at 10 μM” value (steroid sulfatase (STS) [4]) is given as >99%.

Work on `Cc1c(CCc2ccccc2)c(=O)oc2cc(OS(N)(=O)=O)ccc12` [compound 42, 4-Methyl-3-(2-phenylethyl)coumarin-7-O-sulfamate] yielded an inhibition at 0.01 µM (steroid sulfatase (STS) [5]; 0.01 μM inhibitor) of 45%, an inhibition at 0.1 µM (steroid sulfatase (STS) [5]) of 91% and an inhibition at 1 µM (steroid sulfatase (STS) [5]) of 99%. The inhibition at 10 µM (steroid sulfatase (STS) [5]; 10 μM inhibitor) was 100%, the IC50 (steroid sulfatase (STS) [5]) was 33 nM and the IC50 (steroid sulfatase (STS) [6]; 3 nM E1S) was 1.1 nM. For the same compound, the inhibition at 0.01 µM (steroid sulfatase (STS) [6]; MCF7, read-out: % Inhibition of STS Activity in Intact MCF-7 Breast Cancer Cells at 0.01 μM) was 93%, the inhibition at 0.1 µM (steroid sulfatase (STS) [6]) was 98% and the inhibition at 1 µM (steroid sulfatase (STS) [6]) was 99%.

In the case of `Cc1c(CCCc2ccccc2)c(=O)oc2cc(OS(N)(=O)=O)ccc12` [compound 43, 4-Methyl-3-[3-phenylpropyl]coumarin-7-O-sulfamate], the inhibition at 0.1 µM (steroid sulfatase (STS) [5]) is reported as 47%, the inhibition at 1 µM (steroid sulfatase (STS) [5]) is reported as 99% and the inhibition at 0.1 µM (steroid sulfatase (STS) [6]) is reported as 87%. For the same compound, the inhibition at 1 µM (steroid sulfatase (STS) [6]) was 99% and the inhibition at 10 µM (steroid sulfatase (STS) [6]; MCF7, read-out: % Inhibition of STS Activity in Intact MCF-7 Breast Cancer Cells at 10 μM) was 100%.
